The text below walks through data of patent publication US20240336602A1 (Katholieke Universiteit Leuven, priority 2020, published 2024).

In the first assay the target is T1, mouse TRPM3a2 (mTRPM3) ion channel (Mus musculus, UniProt J9SQF3).
T1 construct: expressed in transfected cells; host or cells: flip-in HEK293
T1 sequence (J9SQF3 1-1709 isoform J9SQF3-12): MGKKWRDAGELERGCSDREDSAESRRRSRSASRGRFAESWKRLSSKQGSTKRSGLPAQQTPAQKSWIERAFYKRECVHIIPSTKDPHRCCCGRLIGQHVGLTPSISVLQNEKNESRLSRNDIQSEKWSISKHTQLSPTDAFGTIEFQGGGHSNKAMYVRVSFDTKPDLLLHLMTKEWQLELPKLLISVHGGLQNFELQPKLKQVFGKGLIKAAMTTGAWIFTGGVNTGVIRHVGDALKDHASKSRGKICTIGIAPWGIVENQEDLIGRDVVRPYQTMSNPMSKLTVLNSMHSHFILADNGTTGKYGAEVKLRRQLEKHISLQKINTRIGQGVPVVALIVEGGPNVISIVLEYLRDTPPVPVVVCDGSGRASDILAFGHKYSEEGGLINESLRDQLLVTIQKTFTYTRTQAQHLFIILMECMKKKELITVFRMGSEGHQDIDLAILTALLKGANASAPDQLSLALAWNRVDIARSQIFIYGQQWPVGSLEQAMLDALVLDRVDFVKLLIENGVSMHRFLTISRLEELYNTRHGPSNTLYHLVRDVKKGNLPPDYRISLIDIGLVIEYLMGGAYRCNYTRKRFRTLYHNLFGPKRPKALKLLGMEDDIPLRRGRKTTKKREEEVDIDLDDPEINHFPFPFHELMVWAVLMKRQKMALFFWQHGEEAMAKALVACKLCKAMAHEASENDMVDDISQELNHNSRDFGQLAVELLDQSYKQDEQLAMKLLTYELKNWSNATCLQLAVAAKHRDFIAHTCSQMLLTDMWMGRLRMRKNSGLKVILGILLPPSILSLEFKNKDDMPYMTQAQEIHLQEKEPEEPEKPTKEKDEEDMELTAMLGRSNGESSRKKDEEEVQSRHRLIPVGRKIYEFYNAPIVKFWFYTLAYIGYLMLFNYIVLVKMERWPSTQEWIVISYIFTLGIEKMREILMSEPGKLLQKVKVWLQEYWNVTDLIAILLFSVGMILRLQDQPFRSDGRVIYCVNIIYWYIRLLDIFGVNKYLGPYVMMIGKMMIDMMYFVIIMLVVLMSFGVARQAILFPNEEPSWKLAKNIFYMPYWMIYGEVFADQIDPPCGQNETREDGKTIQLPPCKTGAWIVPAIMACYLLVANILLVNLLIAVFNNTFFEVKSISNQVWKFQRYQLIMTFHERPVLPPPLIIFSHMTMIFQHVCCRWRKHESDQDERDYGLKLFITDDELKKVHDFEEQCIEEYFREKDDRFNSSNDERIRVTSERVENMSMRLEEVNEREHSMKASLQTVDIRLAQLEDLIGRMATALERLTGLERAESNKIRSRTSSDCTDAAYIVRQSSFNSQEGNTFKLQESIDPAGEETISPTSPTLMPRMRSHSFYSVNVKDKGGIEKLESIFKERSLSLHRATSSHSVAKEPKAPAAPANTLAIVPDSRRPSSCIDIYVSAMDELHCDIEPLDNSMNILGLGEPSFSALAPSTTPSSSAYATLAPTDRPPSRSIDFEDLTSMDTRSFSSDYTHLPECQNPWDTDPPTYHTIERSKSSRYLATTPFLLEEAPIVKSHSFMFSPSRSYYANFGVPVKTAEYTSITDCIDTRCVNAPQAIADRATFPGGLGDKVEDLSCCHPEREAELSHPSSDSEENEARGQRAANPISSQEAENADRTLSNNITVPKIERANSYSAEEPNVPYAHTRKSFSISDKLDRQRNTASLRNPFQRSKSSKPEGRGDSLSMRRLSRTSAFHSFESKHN
As to the kind of experiment: TRPM3 ion channel driven Ca2+ uptake, Fluo-4 AM assay (PS-stimulated, overexpressing flip-in HEK293 cells). It counts as cell-based. The following applies: PS (50 μM) stimulated Ca2+ influx, HEK293, cpds 300-399. As for the experimental part: In order to monitor the inhibition of the mouse TRPM3a2 (mTRPM3) ion channel by the compounds of the invention, a cellular system making use of an mTRPM3alpha2 or hTRPM3 overexpressing cell line (flip-in HEK293) was used. The TRPM3 channel was stimulated/opened with Pregnenolone sulfate (PS) (50 μM) which results in Ca^2+ influx.
For mTRPM3, the intracellular Ca^2+ was measured with a Calcium responsive dye, Fluor-4 AM ester (Invitrogen). Cells were cultured until a confluence of 80-90%, washed with Versene (Invitrogen) and detached from the surface by a short incubation with 0.05% Trypsin (Invitrogen). The trypsination process was stopped by the addition of complete cell culture medium (DMEM, glutamax, 10% FCS, NEAA, Pen-Strep). Cells were collected and resuspended in Krebs buffer without Calcium at RT.
Prior the cell seeding (±2000 cells/well into a black, 384 well plate (Greiner)) the diluted compound was added in the assay plate, together with the PS dissolved in Krebs buffer containing Calcium. […] Directly after cell addition the plates were read on an Envision fluorescence reader (Perkin Elmer) by an Excitation of 485 nm and emission at 535 nm.
Channel inhibition was calculated compared to a non-PS stimulated control versus a condition stimulated with PS (50 μM) with vehicle. The ability of the compounds of the invention to inhibit this activity was determined as: Percentage inhibition=[1-((RFU determined for sample with test compound present—RFU determined for sample with positive control inhibitor) divided by (RFU determined in the presence of vehicle—RFU determined for sample with positive control inhibitor))]*100.
Turning to `Cc1ncc(C(C)Oc2ccc3oc(C)c(C(=O)NC(CO)C(N)=O)c3c2)s1` (single isomer, unassigned) [395 - Dia 1], the half-maximal inhibitory concentration (IC50) is at most 1 µM.
Same read-out and setting: in the case of `Cc1ncsc1COc1ccc2oc(C)c(C(=O)NC(C)C(=O)N(C)CCO)c2c1` (single isomer, unassigned) [396 - En 1] it was at most 1 µM; in that of `Cc1ncsc1COc1ccc2oc(C)c(C(=O)NC(C)C(=O)NCCO)c2c1` (single isomer, unassigned) [397 - En 1], at most 1 µM.

The assay is the same for the next values; noted with them: PS (50 μM) stimulated, cpds. 400-499.
`Cc1oc2ccc(OCc3nccn3C)cc2c1C(=O)NC1CCN(CCO)C1=O` (single isomer, unassigned) [403 - En 1]: the 50% inhibitory concentration (IC50) lay within 1 to 20 µM.
Same read-out and setting: in the case of `Cc1oc2ccc(OCc3nccn3C)cc2c1C(=O)NC1CCN(CCO)C1=O` (single isomer, unassigned) [403 - En 2] it was at least 20 µM; in that of `Cc1oc2ccc(OCc3ccnn3C)cc2c1C(=O)NC1CCN(CCO)C1=O` (single isomer, unassigned) [404 - En 1], 1 to 20 µM; in that of `Cc1oc2ccc(OCc3ccccn3)cc2c1C(=O)NC1CCN(CCO)C1=O` (single isomer, unassigned) [406 - En 1], at most 1 µM.
For `Cc1oc2ccc(OCc3nccs3)cc2c1C(=O)NC1CCN(CCO)C1=O` (single isomer, unassigned) [407 - En 1], the IC50 was at most 1 µM.
The same measure, in the same setting: in the case of `Cc1oc2ccc(OCc3nccs3)cc2c1C(=O)NC1CCN(CCO)C1=O` (single isomer, unassigned) [407 - En 2] it was 1 to 20 µM.
Still for that read-out and setting: in the case of `Cc1oc2ccc(OCc3cccnc3O)cc2c1C(=O)NC1CCN(CCO)C1=O` (single isomer, unassigned) [408 - En 1] it was at most 1 µM; in that of `COc1ncccc1COc1ccc2oc(C)c(C(=O)NC3CCN(CCO)C3=O)c2c1` (single isomer, unassigned) [409 - En 1], at most 1 µM; in that of `Cc1ncsc1COc1ccc2oc(C)c(C(=O)NC3(C)CCN(CCO)C3=O)c2c1` (single isomer, unassigned) [410 - En 1], at most 1 µM.
Molecule `Cc1ncsc1COc1ccc2oc(C)c(C(=O)NC3(C)CCN(CCO)C3=O)c2c1` (single isomer, unassigned) [410 - En 2] had an IC50 of 1 to 20 µM.
Same read-out and setting: in the case of `Cc1ncsc1COc1ccc2oc(C)c(C(=O)NC(CO)C(=O)N(C)C)c2c1` (single isomer, unassigned) [411 - En 1] it was at most 1 µM; in that of `Cc1ncc(COc2ccc3oc(C)c(C(=O)NC(CO)CN(C)C)c3c2)s1` (single isomer, unassigned) [412 - En 1], at most 1 µM.
The molecule `Cc1oc2ccc(OCc3ccnn3C)cc2c1C(=O)NC(C)C(N)=O` (single isomer, unassigned) [433 - En 1] registered an IC50 of at most 1 µM.
Still for that read-out and setting: next, `Cc1oc2ccc(OCc3cccnc3O)cc2c1C(=O)NC(C)C(N)=O` (single isomer, unassigned) [436 - En 1]: at most 1 µM; `COc1ncccc1COc1ccc2oc(C)c(C(=O)NC(C)C(N)=O)c2c1` (single isomer, unassigned) [437 - En 1]: at most 1 µM.
Still for that read-out and setting: next, `Cc1ncc(COc2ccc3oc(C)c(C(=O)NC(CN(C)C4CC4)C(N)=O)c3c2)s1` (single isomer, unassigned) [445 - En 1]: at most 1 µM.
On the same count and under the same terms, in the case of `Cc1ncc(COc2ccc3oc(C)c(C(=O)NC(CN(C)C4CC4)C(N)=O)c3c2)s1` (single isomer, unassigned) [445 - En 2] it was 1 to 20 µM; in that of `Cc1ncsc1COc1ccc2oc(C)c(C(=O)NC(CN(C)C3CC3)C(N)=O)c2c1` (single isomer, unassigned) [446 - En 1], at most 1 µM.
`Cc1ncsc1COc1ccc2oc(C)c(C(=O)NC(CN(C)C3CC3)C(N)=O)c2c1` (single isomer, unassigned) [446 - En 2] showed an IC50 of 1 to 20 µM.
Still for that read-out and setting: in the case of `Cc1ncc(COc2ccc3oc(C)c(C(=O)NC(CN(C)C)C(N)=O)c3c2)s1` (single isomer, unassigned) [449 - En 1] it was at most 1 µM; in that of `Cc1ncsc1COc1ccc2oc(C)c(C(=O)NC(CN(C)C)C(N)=O)c2c1` (single isomer, unassigned) [450 - En 1], at most 1 µM; in that of `Cc1oc2ccc(OCc3nccn3C)cc2c1C(=O)NC(CO)C(N)=O` (single isomer, unassigned) [451 - En 1], at most 1 µM.
The same measure, in the same setting: next, `Cc1oc2ccc(OCc3nccn3C)cc2c1C(=O)NC(CO)C(N)=O` (single isomer, unassigned) [451 - En 2]: 1 to 20 µM; `Cc1oc2ccc(OCc3ccnn3C)cc2c1C(=O)NC(CO)C(N)=O` (single isomer, unassigned) [452 - En 1]: at most 1 µM.
As to `Cc1oc2ccc(OCc3ccnn3CC(F)F)cc2c1C(=O)NC(CO)C(N)=O` (single isomer, unassigned) [456 - En 1], the IC50 was at most 1 µM.
On the same count and under the same terms, in the case of `Cc1oc2ccc(OCc3cccnc3C(F)F)cc2c1C(=O)NC(CO)C(N)=O` (single isomer, unassigned) [457 - En 1] it was at most 1 µM.
Still for that read-out and setting: next, `Cc1nc(C)c(COc2ccc3oc(C)c(C(=O)NC(CO)C(N)=O)c3c2)s1` (single isomer, unassigned) [458 - En 1]: at most 1 µM.
For the molecule `Cc1oc2ccc(OCc3cccnc3O)cc2c1C(=O)NC(CO)C(N)=O` (single isomer, unassigned) [459 - En 1], the half-inhibitory concentration (IC50) is at most 1 µM.
On the same count and under the same terms, next, `Cc1ncccc1COc1ccc2oc(C)c(C(=O)NC(C)(CO)C(N)=O)c2c1` (single isomer, unassigned) [461 - En 1]: at most 1 µM; `Cc1ncc(COc2ccc3oc(C)c(C(=O)NC(C)(CO)C(N)=O)c3c2)s1` (single isomer, unassigned) [462 - En 1]: at most 1 µM.
Still for that read-out and setting: next, `Cc1ncsc1COc1ccc2oc(C)c(C(=O)NC(C)(CO)C(N)=O)c2c1` (single isomer, unassigned) [463 - En 2]: at most 1 µM; `Cc1ccc(COc2ccc3oc(C)c(C(=O)NC(C)(CO)C(N)=O)c3c2)cn1` (single isomer, unassigned) [464 - En 1]: at most 1 µM; `COCC(NC(=O)c1c(C)oc2ccc(OCc3scnc3C)cc12)C(N)=O` (single isomer, unassigned) [467 - En 1]: at most 1 µM.
The molecule `COCC(C)(NC(=O)c1c(C)oc2ccc(OCc3scnc3C)cc12)C(N)=O` (single isomer, unassigned) [468 - En 1] came in with an IC50 of at most 1 µM.
Same read-out and setting: next, `Cc1ncc(COc2ccc3oc(C)c(C(=O)NC(CO)CN4CCOCC4)c3c2)s1` (single isomer, unassigned) [487 - En 1]: 1 to 20 µM.
Regarding `Cc1ncsc1COc1ccc2oc(C)c(C(=O)NC(CO)CN3CCOCC3)c2c1` (single isomer, unassigned) [488 - En 1], the IC50 was at most 1 µM.
On the same count and under the same terms, next, `Cc1ncsc1COc1ccc2oc(C)c(C(=O)NC(CO)CN3CCOCC3)c2c1` (single isomer, unassigned) [488 - En 2]: 1 to 20 µM.

The same assay, now with this note: PS (50 μM) stimulated, cpds. 500-599.
Take `Cc1oc2ccc(OCc3cccnc3C(F)(F)F)cc2c1C(=O)NC1(CO)CCCNC1=O` (single isomer, unassigned) [510 - En 1]: the IC50 was at most 1 µM.
Still for that read-out and setting: in the case of `Cc1ncc(COc2ccc3oc(C)c(C(=O)NC4(CO)CCCNC4=O)c3c2)o1` (single isomer, unassigned) [511 - En 1] it was at most 1 µM.
Same read-out and setting: in the case of `Cc1ncc(COc2ccc3oc(C)c(C(=O)NC4(CO)CCCNC4=O)c3c2)o1` (single isomer, unassigned) [511 - En 2] it was 1 to 20 µM.

The IC50 is the concentration that inhibits the measured activity by half. Higher therefore signals weaker potency.
